Test results from patent US20140296255A1, “LYSINE DEMETHYLASE INHIBITORS FOR THROMBOSIS AND CARDIOVASCULAR DISEASES” (ORYZONG GENOMICS, S.A., priority 2011, published 2014).
Like-named read-outs stand apart in the source and are kept apart here.

Columns and labels:
[1] = target: T1, Human recombinant LSD1 protein (Homo sapiens, UniProt O60341); experiment: LSD1 demethylase inhibition, Amplex Red peroxide/peroxidase-coupled assay; format: biochemical; settings: further, more elaborate determination (Table 1)
T1 construct: purchased BPS Bioscience Inc
Source text: Compounds for use in the methods of the invention can be identified by their ability to inhibit LSD1. The ability of compounds to inhibit LSD1 can be tested as follows. Human recombinant LSD1 protein was purchased from BPS Bioscience Inc. In order to monitor LSD1 enzymatic activity and/or its inhibition rate by the LSD1 inhibitor(s) of interest, di-methylated H3-K4 peptide (Millipore) was chosen as a substrate. The demethylase activity was estimated, under aerobic conditions, by measuring the release of H2O2 produced during the catalytic process, using the Amplex® Red peroxide/peroxidase-coupled assay kit (Invitrogen).
Within the experiment, each concentration of inhibitor was tested in duplicate. […] The enzymatic reactions were set up in a 50 mM sodium phosphate, pH 7.4 buffer. At the end of the incubation, Amplex® Red reagent and horseradish peroxidase (HPR) solution were added to the reaction according to the recommendations provided by the supplier (Invitrogen), and left to incubate for 30 extra minutes at room temperature in the dark. A 1 μM H2O2 solution was used as a control of the kit efficiency. The conversion of the Amplex® Red reagent to resorufin due to the presence of H2O2 in the assay, was monitored by fluorescence (excitation at 540 nm, emission at 590 nm) using a microplate reader (Infinite 200, Tecan). Arbitrary units were used to measure level of H2O2 produced in the absence and/or in the presence of inhibitor.
The maximum demethylase activity of LSD1 was obtained in the absence of inhibitor and corrected for background fluorescence in the absence of LSD1. The Ki (IC50) of each inhibitor was estimated at half of the maximum activity.

[2] = target: T2, Human recombinant monoamine oxidase MAO-A (Homo sapiens, UniProt P21397); experiment: MAO-A inhibition, kynuramine fluorescence assay; format: biochemical
T2 construct: purchased Sigma Aldrich
T2 sequence (P21397 1-527): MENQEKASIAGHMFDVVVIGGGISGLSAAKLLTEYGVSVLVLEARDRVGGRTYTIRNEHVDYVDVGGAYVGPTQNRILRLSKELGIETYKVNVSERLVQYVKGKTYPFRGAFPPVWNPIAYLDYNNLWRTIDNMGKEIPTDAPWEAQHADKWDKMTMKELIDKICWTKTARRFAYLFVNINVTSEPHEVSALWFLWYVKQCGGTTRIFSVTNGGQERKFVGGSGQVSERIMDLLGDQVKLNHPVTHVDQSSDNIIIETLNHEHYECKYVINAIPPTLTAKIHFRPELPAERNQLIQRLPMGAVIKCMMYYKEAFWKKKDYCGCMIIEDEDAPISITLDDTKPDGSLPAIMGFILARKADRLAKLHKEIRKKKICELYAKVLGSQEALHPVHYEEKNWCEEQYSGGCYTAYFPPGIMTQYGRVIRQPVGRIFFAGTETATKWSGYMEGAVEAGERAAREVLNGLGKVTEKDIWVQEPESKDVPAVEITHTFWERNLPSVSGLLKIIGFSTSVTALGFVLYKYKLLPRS
Source text: (§1) Human recombinant monoamine oxidase proteins MAO-A and MAO-B were purchased from Sigma Aldrich. MAOs catalyze the oxidative deamination of primary, secondary and tertiary amines. In order to monitor MAO enzymatic activities and/or their inhibition rate by inhibitor(s) of interest, a fluorescent-based (inhibitor)-screening assay was set up. 3-(2-Aminophenyl)-3-oxopropanamine (kynuramine dihydrobromide, Sigma Aldrich), a non fluorescent compound was chosen as a substrate. Kynuramine is a non-specific substrate for both MAOs activities. While undergoing oxidative deamination by MAO activities, kynuramine is converted into 4-hydroxyquinoline (4-HQ), a resulting fluorescent product.
(§2) The monoamine oxidase activity was estimated by measuring the conversion of kynuramine into 4-hydroxyquinoline. Assays were conducted in 96-well black plates with clear bottom (Corning) in a final volume of 100 μL. The assay buffer was 100 mM HEPES, pH 7.5. Each experiment was performed in duplicate within the same experiment.
(§3) Briefly, a fixed amount of MAO (0.25 μg for MAO-A and 0.5 μg for MAO-B) was incubated on ice for 15 minutes in the reaction buffer, in the absence and/or in the presence of various concentrations of inhibitor (e.g., from 0 to 50 μM, depending on the inhibitor strength).
(§4) After leaving the enzyme(s) interacting with the inhibitor, 60 to 90 μM of kynuramine was added to each reaction for MAO-B and MAO-A assay respectively, and the reaction was left for one hour at 37° C. in the dark. The oxidative deamination of the substrate was stopped by adding 50 μL (v/v) of NaOH 2N. The conversion of kynuramine to 4-hydroxyquinoline, was monitored by fluorescence (excitation at 320 nm, emission at 360 nm) using a microplate reader (Infinite 200, Tecan). Arbitrary units were used to measure levels of fluorescence produced in the absence and/or in the presence of inhibitor.
(§5) The Ki (IC50) of each inhibitor was determined at Vmax/2.

[3] = test system: H3K4 methylation in SH-SY5Y cells; experiment: Western blot for dimethylated H3K4 in SH-SY5Y cells; format: cell-based
Source text: B-actin was used as a loading control.

platelets = experiment: Platelet levels in mice after five once daily i.p. injections; format: in vivo, mice (Hsd:Athymic Nude-Foxnlnu); settings: blood 60 minutes after last administration
Protocol: On the fifth day, 60 minutes after the administration, mice were sacrificed and blood was collected in sodium citrate-containing tubes for hemogram analysis. […] Platelet levels were determined in a standard hematology analyzer (Abacus Junior Vet, from Diatron) following the manufacturer's instructions.
(§6) 20% 2-hydroxypropyl-j3-cyclodextrin in H2O was used as a vehicle. When necessary, 10% DMSO was also added in the vehicle. Each day, compounds were administered in a single intraperitoneal injection with administration volumes of 15 ml/kg.
(§7) Mice strain was Hsd:Athymic Nude-Foxnlnu. Animals were maintained in air and temperature controlled cages with regular supply of water and food.

White Blood Cells = experiment: White blood cell levels in mice after five once daily injections; format: in vivo, mice (Hsd:Athymic Nude-Foxnlnu); settings: five consecutive days
Protocol: (§8) On the fifth day, 60 minutes after the administration, mice were sacrificed and blood was collected in sodium citrate-containing tubes for hemogram analysis. Platelet levels were determined and referred as % of platelets compared with the levels found in mice treated with vehicle. Platelet levels were determined in a standard hematology analyzer (Abacus Junior Vet, from Diatron) following the manufacturer's instructions.
as §6, §7
(§9) Measurements of all blood cell types were conducted in the same manner as described above for platelets. Data in the table above are expressed as the % of cells vs vehicle.

Lymphocytes = experiment: Lymphocyte levels in mice after five once daily injections; format: in vivo, mice (Hsd:Athymic Nude-Foxnlnu); settings: five consecutive days
Protocol: as §8, §6, §7, §9

Granulocytes = experiment: Granulocyte levels in mice after five once daily injections; format: in vivo, mice (Hsd:Athymic Nude-Foxnlnu); settings: five consecutive days
Protocol: as §8, §6, §7, §9

Red blood cells = experiment: Red blood cell levels in mice after five once daily injections; format: in vivo, mice (Hsd:Athymic Nude-Foxnlnu); settings: five consecutive days
Protocol: as §8, §6, §7, §9

[4] = target: T3, Human recombinant monoamine oxidase MAO-B (Homo sapiens, UniProt P27338); experiment: MAO-B inhibition, kynuramine fluorescence assay; format: biochemical; settings: further, more elaborate determination (Table 1)
T3 construct: purchased Sigma Aldrich
T3 sequence (P27338 1-520): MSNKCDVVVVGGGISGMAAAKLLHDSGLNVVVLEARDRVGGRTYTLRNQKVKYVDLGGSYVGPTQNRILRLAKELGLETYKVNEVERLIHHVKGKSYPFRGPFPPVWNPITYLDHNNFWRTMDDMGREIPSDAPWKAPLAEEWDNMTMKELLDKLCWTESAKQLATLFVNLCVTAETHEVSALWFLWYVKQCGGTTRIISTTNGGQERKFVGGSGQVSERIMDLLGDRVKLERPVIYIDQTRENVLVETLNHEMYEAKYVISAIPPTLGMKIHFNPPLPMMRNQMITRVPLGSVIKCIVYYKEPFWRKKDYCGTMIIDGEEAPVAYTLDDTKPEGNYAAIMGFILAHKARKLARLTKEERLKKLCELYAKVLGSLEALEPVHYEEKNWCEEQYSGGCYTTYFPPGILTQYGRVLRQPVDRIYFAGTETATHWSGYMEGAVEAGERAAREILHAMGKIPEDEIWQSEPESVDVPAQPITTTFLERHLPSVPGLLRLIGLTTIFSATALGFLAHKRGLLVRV
Source text: as §1, §2, §3, §4, §5

[5] = further, more elaborate determination (Table 1), read-out: MAO-A IC50
[6] = 10 mg/kg i.p. once daily for five days
[7] = 20 mg/kg i.p. once daily for five days
[8] = 40 mg/kg i.p. once daily for five days
[9] = 3 mg/kg i.p. once daily for five days
[10] = 30 mg/kg i.p. once daily for five days

| SMILES | IC50 [1] [nM] | IC50 [2, 5] [nM] | IC50 [4] [nM] | % platelets vs. Vehicle (platelets; [6]) [%] | % platelets vs. Vehicle (platelets; [7]) [%] | % platelets vs. Vehicle (platelets; [8]) [%] | % platelets vs. Vehicle (platelets; [10]) [%] | also measured |
| --- | --- | --- | --- | --- | --- | --- | --- | --- |
| CN1CCN(C(=O)CN[C@H]2C[C@@H]2c2ccc(OCc3ccccc3)cc2)CC1 (racemic) [Compound 3] | – | > 2000 | – | 5 | – | – | – | % platelets vs. Vehicle (platelets; 1 mg/kg i.p. once daily for five days): 46%; % platelets vs. Vehicle (platelets; [9]): 16%; White Blood Cells, % of cells vs vehicle (White Blood Cells; 1 mg/kg): 86%; White Blood Cells, % of cells vs vehicle (White Blood Cells; 3 mg/kg): 76%; White Blood Cells, % of cells vs vehicle (White Blood Cells; 10 mg/kg): 29%; Lymphocytes, % of cells vs vehicle (Lymphocytes; 1 mg/kg): 115%; Lymphocytes, % of cells vs vehicle (Lymphocytes; 3 mg/kg): 90%; Lymphocytes, % of cells vs vehicle (Lymphocytes; 10 mg/kg): 35%; Granulocytes, % of cells vs vehicle (Granulocytes; 1 mg/kg): 69%; Granulocytes, % of cells vs vehicle (Granulocytes; 3 mg/kg): 63%; Granulocytes, % of cells vs vehicle (Granulocytes; 10 mg/kg): 23%; Red blood cells, % of cells vs vehicle (Red blood cells; 1 mg/kg): 103%; Red blood cells, % of cells vs vehicle (Red blood cells; 3 mg/kg): 101%; Red blood cells, % of cells vs vehicle (Red blood cells; 10 mg/kg): 92% |
| N[C@H]1C[C@@H]1c1ccc(-c2cccc(C(F)(F)F)c2)nc1 (racemic) [Compound 6] | – | – | – | 87 | – | – | 63 | – |
| N[C@H]1C[C@@H]1c1ccc(-c2cccc(O)c2)cc1 (racemic) [Compound 7] | < 70 | > 200 | > 1000 | – | – | – | – | IC50 ([2]; initial determination, read-out: IC50 for MAO-A): > 1000 nM; % platelets vs. Vehicle (platelets; 17 mg/kg i.p. once daily for five days): 56%; % platelets vs. Vehicle (platelets; 34 mg/kg i.p. once daily for five days): 46%; % platelets vs. Vehicle (platelets; 52 mg/kg i.p. once daily for five days): 63% |
| CS(=O)(=O)Nc1cccc(-c2ccc([C@H]3C[C@@H]3N)cn2)c1 (racemic) [Compound 8] | – | – | – | – | 68 | 44 | – | – |

Second part, led by results:

| IC50 [1] [nM] | IC50 [2, 5] [nM] | IC50 [4] [nM] | SMILES | % platelets vs. Vehicle (platelets; [6]) [%] | % platelets vs. Vehicle (platelets; [7]) [%] | % platelets vs. Vehicle (platelets; [8]) [%] | % platelets vs. Vehicle (platelets; [10]) [%] | also measured |
| --- | --- | --- | --- | --- | --- | --- | --- | --- |
| < 200 | > 2000 | – | NC(=O)CN[C@H]1C[C@@H]1c1ccc(OCc2ccccc2)cc1 (racemic) [Compound 1] | 66 | 55 | 34 | – | potency at increasing global dimethylated H3K4 levels as compared to tranylcypromine ([3]; Dual-1 at 100 μM vs parnate at 250 μM): ten-fold or more potent; H3K4 methylation (western blot) ([3]; compound at 100 μM, one, two, and three days): increases H3K4 methylation in cells in a time dependent manner; % platelets vs. Vehicle (platelets; 5 mg/kg i.p. once daily for five days): 91% |
| < 100 | > 2000 | > 2000 | N[C@H]1CCN(CCN[C@H]2C[C@@H]2c2ccc(-c3cccc(C(F)(F)F)c3)cc2)C1 (racemic) [Compound 4] | 19 | – | – | 7 | % platelets vs. Vehicle (platelets; [9]): 87%; % platelets vs. Vehicle (platelets; 9 mg/kg i.p. once daily for five days): 30%; % platelets vs. Vehicle (platelets; 18 mg/kg i.p. once daily for five days): 19%; % platelets vs. Vehicle (platelets; 36 mg/kg i.p. once daily for five days): 11% |
| < 70 | > 1000 | > 10000 | CC(C)S(=O)(=O)Nc1cccc(-c2ccc([C@H]3C[C@@H]3N)cc2)c1 (racemic) [Compound 9] | – | – | – | 10 | – |
| < 200 | > 2000 | – | NC(=O)CN[C@H]1C[C@@H]1c1ccc(OCc2ccccc2)cc1 (single isomer, unassigned) [Compound 2] | – | 35 | 27 | – | % platelets vs. Vehicle (platelets; 60 mg/kg i.p. once daily for five days): 16% |
